This note sets out measurements from ChEMBL document CHEMBL1150890, “Cyclotheonamides E2 and E3, new potent serine protease inhibitors from the marine sponge of the genus Theonella” (J Nat Prod, 1998).

Starred links: 1 amine or outer side, 2 acyl side, 3 side chain; linkers in the order of their positions; H or OH if unused. Positions of bridges follow the written chain, without caps; N, C: chain ends. Non-standard residues stand in square brackets, D forms with d. Residues, ends and D or L forms follow the SMILES beside them. *: point of attachment. Arg(ψCOCO) = N=C(N)NCCC[C@H](N[*:1])C(=O)C(=O)[*:2]; X1 = O=C(/C=C/[C@H](Cc1ccc(O)cc1)N[*:1])[*:2]; aIle = CC[C@@H](C)[C@H](N)C(=O)O; Dap = NC[C@H](N)C(=O)O; PhAc = O=C(Cc1ccccc1)*

A word on the IC50: it is the point on the concentration scale where inhibition reaches its midpoint.

Assay [1] concerns the target Prothrombin (Homo sapiens, UniProt P00734). Description: Inhibition of thrombin.
A short description of assay [2]: Inhibition of trypsin.

Consider `CC[C@@H](C)[C@@H]1NC(=O)C(=O)[C@H](CCCNC(=N)N)NC(=O)[C@@H]2CCCN2C(=O)[C@@H](NC(=O)[C@H](C)NC(=O)Cc2ccccc2)CNC(=O)/C=C/[C@H](Cc2ccc(O)cc2)NC1=O` [CYCLOTHEONAMIDE E] (PhAc-A[Dap]P[Arg(ψCOCO)][aIle][X1]; lactam 2-C), for which the IC50 is 2.9 nM in assay [1] and 30 nM in assay [2].

`N=C(N)NCCC[C@@H]1NC(=O)[C@@H]2CCCN2C(=O)[C@@H](NC=O)CNC(=O)/C=C/[C@H](Cc2ccc(O)cc2)NC(=O)[C@@H](Cc2ccccc2)NC(=O)C1=O` [CYCLOTHEONAMIDE A]: the IC50 in assay [1] worked out at 23 nM; in assay [2] it was 16 nM.

Take `CC[C@H](C)[C@H]1NC(=O)C(=O)[C@H](CCCNC(=N)N)NC(=O)[C@@H]2CCCN2C(=O)[C@@H](NC(=O)[C@H](C)NC(=O)CC(C)C)CNC(=O)/C=C/[C@H](Cc2ccc(O)cc2)NC1=O` [CYCLOTHEONAMIDE E3]: the results for the half-maximal inhibitory concentration (IC50) in assay [1] and in assay [2] were 9.5 nM and 52 nM, respectively.

With `CC[C@H](C)[C@H]1NC(=O)C(=O)[C@H](CCCNC(=N)N)NC(=O)[C@@H]2CCCN2C(=O)[C@@H](NC(=O)[C@H](C)NC(=O)c2ccccc2)CNC(=O)/C=C/[C@H](Cc2ccc(O)cc2)NC1=O` [CYCLOTHEONAMIDE E2], the results for the half-inhibitory concentration (IC50) in assay [1] and in assay [2] were 13 nM and 55 nM, respectively.
